Measured values reported in PubChem BioAssay AID200 (DTP/NCI, 2004).
“And” between values parts separate entries of the source, which are not always exact repeats. Equal entries are not always repeated. Toxic doses and inconclusive results are not listed.

Tested on: B6C3F1 mice, B16 melanoma ip, median survival T/C
Experiment: NCI In Vivo Anticancer Drug Screen. Data for tumor model B16 Melanoma (intraperitoneal) in B6C3F1 mice
Settings: endpoint: median survival time, schedule: Q01DX009 (ip), higher = longer survival
How it was run: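 Tumor-bearing mice received test compound; a separate group got vehicle only. Survival was then compared, with results reported as treated over control.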

[1] = dose: 50.0 mg/kg/injection, vehicle: DMSO
[2] = dose: 100.0 mg/kg/injection, vehicle: DMSO
[3] = dose: 200.0 mg/kg/injection, vehicle: DMSO
[4] = dose: 12.5 mg/kg/injection, vehicle: saline with Tween-80
[5] = dose: 25.0 mg/kg/injection, vehicle: saline with Tween-80
[6] = dose: 50.0 mg/kg/injection, vehicle: saline with Tween-80
[7] = dose: 100.0 mg/kg/injection, vehicle: saline with Tween-80
[8] = dose: 200.0 mg/kg/injection, vehicle: saline with Tween-80
[9] = dose: 12.5 mg/kg/injection, vehicle: Klucel (hydroxypropylcellulose) (HPC)
[10] = dose: 25.0 mg/kg/injection, vehicle: Klucel (hydroxypropylcellulose) (HPC)
[11] = dose: 50.0 mg/kg/injection, vehicle: Klucel (hydroxypropylcellulose) (HPC)
[12] = dose: 100.0 mg/kg/injection, vehicle: Klucel (hydroxypropylcellulose) (HPC)
[13] = dose: 200.0 mg/kg/injection, vehicle: Klucel (hydroxypropylcellulose) (HPC)
[14] = dose: 400.0 mg/kg/injection, vehicle: Klucel (hydroxypropylcellulose) (HPC)
[15] = dose: 1.0 mg/kg/injection, vehicle: saline + alcohol

## COc1ccc(N=C(C)C2C(=O)c3ccccc3C2=O)cc1
[1]
  T/C: 103 % of control
[2]
  T/C: 103 % of control
[3]
  T/C: 105 % of control
dose: 400.0 mg/kg/injection, vehicle: DMSO
  T/C: 116 % of control
dose: 800.0 mg/kg/injection, vehicle: DMSO
  T/C: 97 % of control

## CCCCCCCCCCCCCCCCN(CC)CC
dose: 2.5 mg/kg/injection, vehicle: saline
  T/C: 99 % of control
dose: 5.0 mg/kg/injection, vehicle: saline
  T/C: 97 % of control
dose: 10.0 mg/kg/injection, vehicle: saline
  T/C: 90 % of control

## OC1OC2COC(c3ccccc3)OC2C(O)C1O (stereo not drawn)
dose: 25.0 mg/kg/injection, vehicle: water
  T/C: 103 % of control
dose: 50.0 mg/kg/injection, vehicle: water
  T/C: 96 % of control
dose: 100.0 mg/kg/injection, vehicle: water
  T/C: 110 % of control
dose: 200.0 mg/kg/injection, vehicle: water
  T/C: 98 % of control
dose: 400.0 mg/kg/injection, vehicle: water
  T/C: 94 % of control
dose: 800.0 mg/kg/injection, vehicle: water
  T/C: 93 % of control

## C=C(C)C(=O)OC1CC(C)(O)C2(O)CCC(C)(/C=C3\OC(=O)C(COC(C)=O)=C31)O2 (stereo not drawn)
dose: 0.62 mg/kg/injection, vehicle: distilled water + Tween-80 + alcohol
  T/C: 96 % of control
dose: 1.25 mg/kg/injection, vehicle: distilled water + Tween-80 + alcohol
  T/C: 105 % of control
dose: 2.5 mg/kg/injection, vehicle: distilled water + Tween-80 + alcohol
  T/C: 92 % of control
dose: 5.0 mg/kg/injection, vehicle: distilled water + Tween-80 + alcohol
  T/C: 89 % of control

## CCN(CC)Cc1cc2[nH]c3c4ccc(Cl)cc4ncc3c2cc1OC
[4]
  T/C: 91 % of control and 102 % of control
[5]
  T/C: 112 % of control and 102 % of control
[6]
  T/C: 98 % of control and 107 % of control

## CCO/C=C1\SC(=S)N(c2ccccc2C)C1=O
[4]
  T/C: 111 % of control
[5]
  T/C: 111 % of control
[6]
  T/C: 108 % of control and 105 % of control
[7]
  T/C: 109 % of control and 116 % of control
[8]
  T/C: 112 % of control and 116 % of control

## O=C(O)c1cc(Cc2ccc(O)c(C(=O)O)c2)ccc1O (tested in a mixture with another compound)
dose: 6.25 mg/kg/injection, vehicle: Klucel (hydroxypropylcellulose) (HPC)
  T/C: 101 % of control
[9]
  T/C: 105 % of control
[10]
  T/C: 103 % of control
[11]
  T/C: 94 % of control
[12]
  T/C: 90 % of control
[13]
  T/C: 93 % of control

## O=C1c2ccc(Br)cc2-c2cc(Br)ccc21
dose: 6.25 mg/kg/injection, vehicle: saline with Tween-80
  T/C: 98 % of control
[4]
  T/C: 98 % of control
[5]
  T/C: 93 % of control

## C[n+]1c(-c2cccc(OCCCCCCCOc3cccc(-c4c5cc(N)ccc5c5ccc(N)cc5[n+]4C)c3)c2)c2cc(N)ccc2c2ccc(N)cc21
dose: 0.02 mg/kg/injection, vehicle: water
  T/C: 98 % of control
dose: 0.04 mg/kg/injection, vehicle: water
  T/C: 109 % of control

## C=C1C(=O)O[C@@H]2C[C@@H](C)[C@@H]3C=CC(=O)[C@@]3(C)[C@@H](OC(=O)CC(=O)O[C@H]3[C@@H]4C(=C)C(=O)O[C@@H]4C[C@@H](C)[C@@H]4C=CC(=O)[C@]43C)[C@H]12
dose: 0.25 mg/kg/injection, vehicle: saline with Tween-80
  T/C: 88 % of control
dose: 0.5 mg/kg/injection, vehicle: saline with Tween-80
  T/C: 96 % of control
dose: 1.0 mg/kg/injection, vehicle: saline with Tween-80
  T/C: 102 % of control
dose: 2.0 mg/kg/injection, vehicle: saline with Tween-80
  T/C: 110 % of control
dose: 4.0 mg/kg/injection, vehicle: saline with Tween-80
  T/C: 116 % of control

## CC(NC(=O)OCc1ccccc1)C(=O)NC(Cc1c[nH]c2ccccc12)C(=O)O (stereo not drawn)
[12]
  T/C: 95 % of control
[13]
  T/C: 100 % of control
[14]
  T/C: 89 % of control

## Cn1cc(NC(=O)c2cc(NC(=O)c3cc(NC=O)cn3C)cn2C)cc1C(=O)NCCC(=N)N
dose: 6.25 mg/kg/injection, vehicle: water
  T/C: 99 % of control and 101 % of control and 105 % of control

## CC1(C)CC23C4COC(=O)C2CCC1C3CC4=O (stereo not drawn)
dose: 6.25 mg/kg/injection, vehicle: DMSO
  T/C: 89 % of control
dose: 12.5 mg/kg/injection, vehicle: DMSO
  T/C: 90 % of control
dose: 25.0 mg/kg/injection, vehicle: DMSO
  T/C: 97 % of control
[1]
  T/C: 99 % of control
[2]
  T/C: 88 % of control
[3]
  T/C: 96 % of control

## C[Si](C)(C)OSc1ccccc1[N+](=O)[O-]
[9]
  T/C: 108 % of control
[10]
  T/C: 110 % of control
[11]
  T/C: 113 % of control
[12]
  T/C: 112 % of control
[13]
  T/C: 103 % of control
[14]
  T/C: 89 % of control

## CC(=O)NC(Cc1ccc(F)cc1)C(=O)O (stereo not drawn)
[5]
  T/C: 123 % of control
[6]
  T/C: 121 % of control
[7]
  T/C: 121 % of control
[8]
  T/C: 110 % of control
dose: 400.0 mg/kg/injection, vehicle: saline with Tween-80
  T/C: 111 % of control
dose: 800.0 mg/kg/injection, vehicle: saline with Tween-80
  T/C: 121 % of control

## COC(=O)C12OCC34C(CC5C(C)C6=CC(=O)OC6=CC5(C)C3C(O)C1O)OC(=O)C(OC(C)=O)C24 (stereo not drawn)
dose: 0.12 mg/kg/injection, vehicle: saline + alcohol
  T/C: 110 % of control
dose: 0.25 mg/kg/injection, vehicle: saline + alcohol
  T/C: 109 % of control
dose: 0.5 mg/kg/injection, vehicle: saline + alcohol
  T/C: 105 % of control
[15]
  T/C: 103 % of control
dose: 2.0 mg/kg/injection, vehicle: saline + alcohol
  T/C: 109 % of control

## CCC(C)C(=O)O[C@H]1C(=O)O[C@@H]2C[C@H]3C(C)=CC(=O)[C@@H](O)[C@]3(C)[C@H]3[C@@H](O)[C@H](O)[C@@]4(C)OC[C@]32[C@@H]14 (stereo partly drawn)
[15]
  T/C: 160 % of control

## CC(C)NC(=O)OCc1c(COC(=O)NC(C)C)c(-c2ccc(Cl)c(Cl)c2)n2c1CCC2
dose: 2.5 mg/kg/injection, vehicle: Klucel (hydroxypropylcellulose) (HPC)
  T/C: 115 % of control
dose: 5.0 mg/kg/injection, vehicle: Klucel (hydroxypropylcellulose) (HPC)
  T/C: 158 % of control
dose: 5.0 mg/kg/injection, vehicle: saline with Tween-80
  T/C: 159 % of control
dose: 6.25 mg/kg/injection, vehicle: distilled water + Tween-80
  T/C: 166 % of control and 169 % of control and 176 % of control
dose: 10.0 mg/kg/injection, vehicle: Klucel (hydroxypropylcellulose) (HPC)
  T/C: 153 % of control and 175 % of control
dose: 10.0 mg/kg/injection, vehicle: saline with Tween-80
  T/C: 196 % of control
dose: 20.0 mg/kg/injection, vehicle: Klucel (hydroxypropylcellulose) (HPC)
  T/C: 209 % of control
dose: 20.0 mg/kg/injection, vehicle: saline with Tween-80
  T/C: 191 % of control
dose: 40.0 mg/kg/injection, vehicle: Klucel (hydroxypropylcellulose) (HPC)
  T/C: 235 % of control and 256 % of control
dose: 40.0 mg/kg/injection, vehicle: saline with Tween-80
  T/C: 251 % of control
dose: 80.0 mg/kg/injection, vehicle: saline with Tween-80
  T/C: 89 % of control

## S=C(S)N1CCCNCC1 (tested in a mixture with another compound)
[4]
  T/C: 107 % of control
[5]
  T/C: 100 % of control
[6]
  T/C: 92 % of control

## Oc1ccc(/C=N/N=C/c2ccc(O)c(O)c2)cc1O
[5]
  T/C: 100 % of control
[6]
  T/C: 102 % of control
[7]
  T/C: 99 % of control
[8]
  T/C: 97 % of control
